Results: PubChem BioAssay AID2060896 (Molecular Pharmacology Branch, DTP, NCI, 2025)
Values belong to the compound of their own block, whether it stands above or below them.

System: 941728-121-R-J1-PDC complex spheroid viability
Test: Anticancer human tumor 941728-121-R-J1-PDC patient-derived lung adenocarcinoma cell line growth inhibition [RAS]
Details: for IC50: curve of first compound; for viability, T/C: stronger effect = lower value
In short: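 Multi-cell-type spheroids: tumor cells plus HUVEC endothelial cells and mesenchymal stem cells. RAS-pathway inhibitors were combined with targeted agents, each dosed in half-log steps down from clinical Cmax, or from 10 microM when Cmax was unknown.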

[1] = second compound 0.00316 µM, first compound 0.0316 µM
[2] = second compound 0.00316 µM, first compound 0.1 µM
[3] = second compound 0.00316 µM, first compound 0.316 µM
[4] = second compound 0.00316 µM, first compound 1 µM
[5] = second compound 0.00316 µM, first compound 3.16 µM
[6] = second compound 0.00316 µM, first compound 10 µM
[7] = second compound 0.01 µM, first compound 0.0316 µM
[8] = second compound 0.01 µM, first compound 0.1 µM
[9] = second compound 0.01 µM, first compound 0.316 µM
[10] = second compound 0.01 µM, first compound 1 µM
[11] = second compound 0.01 µM, first compound 3.16 µM
[12] = second compound 0.01 µM, first compound 10 µM
[13] = second compound 0.0316 µM, first compound 0.0316 µM
[14] = second compound 0.0316 µM, first compound 0.1 µM
[15] = second compound 0.0316 µM, first compound 0.316 µM
[16] = second compound 0.0316 µM, first compound 1 µM
[17] = second compound 0.0316 µM, first compound 3.16 µM
[18] = second compound 0.0316 µM, first compound 10 µM
[19] = second compound 0.1 µM, first compound 0.0316 µM
[20] = second compound 0.1 µM, first compound 0.1 µM
[21] = second compound 0.1 µM, first compound 0.316 µM
[22] = second compound 0.1 µM, first compound 1 µM
[23] = second compound 0.1 µM, first compound 3.16 µM
[24] = second compound 0.1 µM, first compound 10 µM
[25] = second compound 0.316 µM, first compound 0.0316 µM
[26] = second compound 0.316 µM, first compound 0.1 µM
[27] = second compound 0.316 µM, first compound 0.316 µM
[28] = second compound 0.316 µM, first compound 1 µM
[29] = second compound 0.316 µM, first compound 3.16 µM
[30] = second compound 0.316 µM, first compound 10 µM
[31] = second compound 1 µM, first compound 0.0316 µM
[32] = second compound 1 µM, first compound 0.1 µM
[33] = second compound 1 µM, first compound 0.316 µM
[34] = second compound 1 µM, first compound 1 µM
[35] = second compound 1 µM, first compound 3.16 µM
[36] = second compound 1 µM, first compound 10 µM
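Also: spheroids exposed to compounds for 7 days before readout.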
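For viability, T/C in this document: 100% = DMSO vehicle control viability.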

IC50 (second compound 0.00316 µM): < 31.6 nM | IC50 (second compound 0.01 µM): < 31.6 nM | IC50 (second compound 0.0316 µM): < 31.6 nM | IC50 (second compound 0.1 µM): < 31.6 nM | IC50 (second compound 0.316 µM): < 31.6 nM | IC50 (second compound 1 µM): < 31.6 nM
SMILES: CC(Nc1ccc2c(c1)OCCn1cc(N3C(=O)OCC3C(F)F)nc1-2)C(N)=O (stereo unspecified) + C=CC(=O)N1CCN(c2nc(OCC3CCCN3C)nc3c(F)c(-c4nc(N)cc(C)c4C(F)(F)F)c(Cl)cc23)C(C)C1
viability, T/C [1]: 16.6% | viability, T/C [2]: 15.2% | viability, T/C [3]: 15.4% | viability, T/C [4]: 15.4% | viability, T/C [5]: 12.8% | viability, T/C [6]: 12% | viability, T/C [7]: 17.7% | viability, T/C [8]: 14.9% | viability, T/C [9]: 15.2% | viability, T/C [10]: 12.9% | viability, T/C [11]: 12.2% | viability, T/C [12]: 10.5% | viability, T/C [13]: 19.2% | viability, T/C [14]: 14.6% | viability, T/C [15]: 13.4% | viability, T/C [16]: 12.9% | viability, T/C [17]: 10.7% | viability, T/C [18]: 10.8% | viability, T/C [19]: 18.3% | viability, T/C [20]: 15.3% | viability, T/C [21]: 12.8% | viability, T/C [22]: 13.8% | viability, T/C [23]: 11.5% | viability, T/C [24]: 10.8% | viability, T/C [25]: 17.5% | viability, T/C [26]: 15.3% | viability, T/C [27]: 13.4% | viability, T/C [28]: 15.1% | viability, T/C [29]: 13.6% | viability, T/C [30]: 11.6% | viability, T/C [31]: 14.9% | viability, T/C [32]: 15.7% | viability, T/C [33]: 14.3% | viability, T/C [34]: 13.4% | viability, T/C [35]: 12.6% | viability, T/C [36]: 11.8%

IC50 (second compound 0.00316 µM): < 31.6 nM | IC50 (second compound 0.01 µM): < 31.6 nM | IC50 (second compound 0.0316 µM): < 31.6 nM | IC50 (second compound 0.1 µM): < 31.6 nM | IC50 (second compound 0.316 µM): < 31.6 nM | IC50 (second compound 1 µM): < 31.6 nM
SMILES: C[C@@H](NC(=O)c1ncnc(N)c1Cl)c1ncc(C(=O)Nc2cc(C(F)(F)F)c(Cl)cn2)s1 + C=CC(=O)N1CCN(c2nc(OCC3CCCN3C)nc3c(F)c(-c4nc(N)cc(C)c4C(F)(F)F)c(Cl)cc23)C(C)C1
viability, T/C [1]: 21.6% | viability, T/C [2]: 21% | viability, T/C [3]: 21.2% | viability, T/C [4]: 25.4% | viability, T/C [5]: 23.1% | viability, T/C [6]: 20.7% | viability, T/C [7]: 26.2% | viability, T/C [8]: 23.9% | viability, T/C [9]: 23.3% | viability, T/C [10]: 27.1% | viability, T/C [11]: 20.5% | viability, T/C [12]: 20.2% | viability, T/C [13]: 22.3% | viability, T/C [14]: 22% | viability, T/C [15]: 20.9% | viability, T/C [16]: 22% | viability, T/C [17]: 23.5% | viability, T/C [18]: 20.4% | viability, T/C [19]: 26.8% | viability, T/C [20]: 24.9% | viability, T/C [21]: 22.5% | viability, T/C [22]: 23.1% | viability, T/C [23]: 21.9% | viability, T/C [24]: 20.9% | viability, T/C [25]: 20.1% | viability, T/C [26]: 20.9% | viability, T/C [27]: 21% | viability, T/C [28]: 21.6% | viability, T/C [29]: 24.9% | viability, T/C [30]: 22.2% | viability, T/C [31]: 23.4% | viability, T/C [32]: 30.2% | viability, T/C [33]: 22.1% | viability, T/C [34]: 22.5% | viability, T/C [35]: 27.3% | viability, T/C [36]: 22.4%

IC50 (second compound 0.00316 µM): < 3.16 nM | IC50 (second compound 0.01 µM): < 3.16 nM | IC50 (second compound 0.0316 µM): < 3.16 nM | IC50 (second compound 0.1 µM): < 3.16 nM | IC50 (second compound 0.316 µM): < 3.16 nM | IC50 (second compound 1 µM): < 3.16 nM
SMILES: O=C(c1ccc(F)c(F)c1Nc1ccc(I)cc1F)N1CC(O)([C@@H]2CCCCN2)C1 + C=CC(=O)N1CCN(c2nc(OCC3CCCN3C)nc3c(F)c(-c4nc(N)cc(C)c4C(F)(F)F)c(Cl)cc23)C(C)C1
viability, T/C (second compound 0.00316 µM, first compound 0.00316 µM): 20.4% | viability, T/C (second compound 0.00316 µM, first compound 0.01 µM): 19.1% | viability, T/C [1]: 15.5% | viability, T/C [2]: 14.5% | viability, T/C [3]: 12.7% | viability, T/C [4]: 11.8% | viability, T/C (second compound 0.01 µM, first compound 0.00316 µM): 18.9% | viability, T/C (second compound 0.01 µM, first compound 0.01 µM): 14.6% | viability, T/C [7]: 16.7% | viability, T/C [8]: 12.9% | viability, T/C [9]: 12.5% | viability, T/C [10]: 11.6% | viability, T/C (second compound 0.0316 µM, first compound 0.00316 µM): 16.1% | viability, T/C (second compound 0.0316 µM, first compound 0.01 µM): 13.8% | viability, T/C [13]: 13.3% | viability, T/C [14]: 13.9% | viability, T/C [15]: 13% | viability, T/C [16]: 12.1% | viability, T/C (second compound 0.1 µM, first compound 0.00316 µM): 22% | viability, T/C (second compound 0.1 µM, first compound 0.01 µM): 13.5% | viability, T/C [19]: 14.5% | viability, T/C [20]: 13.8% | viability, T/C [21]: 12.8% | viability, T/C [22]: 10.9% | viability, T/C (second compound 0.316 µM, first compound 0.00316 µM): 15% | viability, T/C (second compound 0.316 µM, first compound 0.01 µM): 13.7% | viability, T/C [25]: 13.9% | viability, T/C [26]: 13.1% | viability, T/C [27]: 12.4% | viability, T/C [28]: 13.5% | viability, T/C (second compound 1 µM, first compound 0.00316 µM): 16.4% | viability, T/C (second compound 1 µM, first compound 0.01 µM): 17% | viability, T/C [31]: 15.3% | viability, T/C [32]: 13.2% | viability, T/C [33]: 13.2% | viability, T/C [34]: 11.1%
